ChEMBL document CHEMBL1201862, “PubChem BioAssay data set” (2004)
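A five-concentration, 48-hour dose response in 96-well plates underlies each endpoint, interpolated linearly between surrounding concentrations. GI50: concentration for 50% inhibition of growth.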 Activity calls are given as the source filed them. Cut-off read from the data, not from the text of the source: active = GI50 up to about 1.1 µM and inactive = higher.

Columns and labels:
Assay in all cases: growth of human tumour cells (NCI), 48 h
[1] = system: NCI-H460
[2] = system: OVCAR-5
[3] = system: NCI-H226
[4] = system: OVCAR-3
[5] = system: EKVX
[6] = system: NCI/ADR-RES
[7] = system: SR
[8] = system: SNB-19
[9] = system: SNB-75
[10] = system: T47D
[11] = system: SF-295
[12] = system: HCT-116
[13] = system: OVCAR-8
[14] = system: RPMI-8226
[15] = system: BT-549
[16] = system: MDA-MB-435
[17] = system: HOP-92
[18] = system: CCRF-CEM
[19] = system: DU-145
[20] = system: U-251
[21] = system: A498
[22] = system: SK-MEL-28
[23] = system: NCI-H23
[24] = system: OVCAR-4
[25] = system: UACC-257
[26] = system: 786-0
[27] = system: A549
[28] = system: MDA-MB-231
[29] = system: COLO 205
[30] = system: M14
[31] = system: ACHN
[32] = system: KM12
[33] = system: TK-10
[34] = system: HT-29
[35] = system: HCT-15
[36] = system: SK-MEL-5
[37] = system: SN12C
[38] = system: PC-3
[39] = system: MOLT-4
[40] = system: HOP-62
[41] = system: UACC-62
[42] = system: MDA-N
[43] = system: HCC 2998
[44] = system: MCF7
[45] = system: NCI-H522
[46] = system: SK-MEL-2
[47] = system: Malme-3M
[48] = system: Hs-578T
[49] = system: RXF 393
[50] = system: LOX IMVI
[51] = system: SK-OV-3
[52] = system: SF-268
[53] = system: SW-620
[54] = system: K562
[55] = system: IGROV-1
[56] = system: SF-539
[57] = system: CAKI-1
[58] = system: UO-31
[59] = system: HL-60

CC(C)CC(=O)OC[n+]1cccc(-c2c(COC(=O)NC(C)C)c(COC(=O)NC(C)C)c3n2CCC3)c1 was tested, and the GI50 [1] was 30.1 µM (inactive), the GI50 [2] was 60.8 µM (inactive) and the GI50 [3] was > 100 µM (inactive). For the same molecule, the GI50 [4] was > 100 µM (inactive), the GI50 [5] was > 100 µM (inactive) and the GI50 [6] was 35.2 µM (inactive). For the same molecule, the GI50 [7] was > 100 µM (inactive), the GI50 [8] was > 100 µM (inactive) and the GI50 [9] was 39.8 µM (inactive). For the same molecule, the GI50 [10] was 51.3 µM (inactive), the GI50 [11] was 39 µM (inactive) and the GI50 [12] was 44 µM (inactive). For the same molecule, the GI50 [13] was 48.8 µM (inactive), the GI50 [14] was 15.2 µM (inactive) and the GI50 [15] was 77.3 µM (inactive). For the same molecule, the GI50 [16] was > 100 µM (inactive), the GI50 [17] was 26.6 µM (inactive) and the GI50 [18] was 34.1 µM (inactive). For the same molecule, the GI50 [19] was 24.7 µM (inactive), the GI50 [20] was 41.5 µM (inactive) and the GI50 [21] was 23.3 µM (inactive). For the same molecule, the GI50 [22] was > 100 µM (inactive), the GI50 [23] was 31.1 µM (inactive) and the GI50 [24] was 38.5 µM (inactive). For the same molecule, the GI50 [25] was > 100 µM (inactive), the GI50 [26] was 27.5 µM (inactive) and the GI50 [27] was 79.1 µM (inactive). For the same molecule, the GI50 [28] was 37.4 µM (inactive), the GI50 [29] was 70.3 µM (inactive) and the GI50 [30] was 61.4 µM (inactive). For the same molecule, the GI50 [31] was 24.9 µM (inactive), the GI50 [32] was > 100 µM (inactive) and the GI50 [33] was 63.5 µM (inactive). The GI50 [34] was 52.6 µM (inactive), the GI50 [35] was 66.8 µM and the GI50 [36] was 58.5 µM (inactive). The GI50 [37] was 36.9 µM (inactive), the GI50 [38] was 48.1 µM (inactive) and the GI50 [39] was 38 µM (inactive). The GI50 [40] was 41.7 µM (inactive), the GI50 [41] was 25.6 µM (inactive) and the GI50 [42] was > 100 µM (inactive). The GI50 [43] was > 100 µM (inactive), the GI50 [44] was 45.1 µM (inactive) and the GI50 [45] was 23.7 µM (inactive). The GI50 [46] was 34 µM (inactive), the GI50 [47] was 83.6 µM (inactive) and the GI50 [48] was 74.1 µM (inactive). The GI50 [49] was 33.9 µM (inactive), the GI50 [50] was 26.8 µM (inactive) and the GI50 [51] was 55.3 µM (inactive). For the same molecule, the GI50 [52] was 29 µM (inactive), the GI50 [53] was 51.1 µM (inactive) and the GI50 [54] was 51.9 µM (inactive). The GI50 [55] was > 100 µM (inactive), the GI50 [56] was 37.5 µM (inactive) and the GI50 [57] was 17.2 µM (inactive). The GI50 [58] was 31.3 µM (inactive).

CC(C)(C)c1cc(/C=C(\C#N)C(=O)NCCO)cc(C(C)(C)C)c1O was tested, and the GI50 [1] was 20.7 µM (inactive), the GI50 [2] was 24.1 µM (inactive) and the GI50 [3] was 19.5 µM (inactive). For the same molecule, the GI50 [4] was 14.6 µM (inactive), the GI50 [5] was 24.5 µM (inactive) and the GI50 [6] was 23 µM (inactive). For the same molecule, the GI50 [7] was 17.5 µM (inactive), the GI50 [8] was 32.1 µM (inactive) and the GI50 [9] was 31.8 µM (inactive). The GI50 [10] was 20.1 µM (inactive), the GI50 [11] was 16.9 µM (inactive) and the GI50 [12] was 16.9 µM (inactive). The GI50 [13] was 38.6 µM (inactive), the GI50 [14] was 12.3 µM (inactive) and the GI50 [15] was 25.1 µM (inactive). The GI50 [16] was 21.1 µM (inactive), the GI50 [17] was 45.7 µM (inactive) and the GI50 [18] was 15.1 µM (inactive). For the same molecule, the GI50 [19] was 34 µM (inactive), the GI50 [20] was 18 µM (inactive) and the GI50 [21] was 20.3 µM (inactive). For the same molecule, the GI50 [22] was 21.6 µM (inactive), the GI50 [23] was 27.9 µM (inactive) and the GI50 [24] was 17.8 µM (inactive). The GI50 [25] was 17.5 µM (inactive), the GI50 [26] was 21.8 µM (inactive) and the GI50 [27] was 27.4 µM (inactive). For the same molecule, the GI50 [28] was 18.4 µM (inactive), the GI50 [29] was 20.5 µM (inactive) and the GI50 [30] was 17.1 µM (inactive). The GI50 [31] was 27.2 µM (inactive), the GI50 [32] was 21.5 µM (inactive) and the GI50 [33] was 22.3 µM (inactive). For the same molecule, the GI50 [34] was 21 µM (inactive), the GI50 [35] was 20.7 µM and the GI50 [36] was 14.9 µM (inactive). The GI50 [37] was 19 µM (inactive), the GI50 [38] was 18.2 µM (inactive) and the GI50 [39] was 18.7 µM (inactive). The GI50 [40] was 21.2 µM (inactive), the GI50 [41] was 13.6 µM (inactive) and the GI50 [42] was 18.7 µM (inactive). For the same molecule, the GI50 [44] was 26.5 µM (inactive), the GI50 [45] was 16.5 µM (inactive) and the GI50 [46] was 17.6 µM (inactive). The GI50 [47] was 17.3 µM (inactive), the GI50 [48] was 37.8 µM (inactive) and the GI50 [49] was 27.4 µM (inactive). The GI50 [50] was 25.1 µM (inactive), the GI50 [51] was 20.7 µM (inactive) and the GI50 [52] was 31.9 µM (inactive). The GI50 [53] was 28.8 µM (inactive), the GI50 [54] was 24 µM (inactive) and the GI50 [55] was 40.7 µM (inactive). For the same molecule, the GI50 [56] was 18.3 µM (inactive), the GI50 [57] was 24.5 µM (inactive) and the GI50 [59] was 15.7 µM (inactive). For the same molecule, the GI50 [58] was 19.9 µM (inactive).
